Test [1] deals with A. thaliana recombinants having the target gene introduced therein. Nature of the test: BBC resistance assay on A. thaliana recombinants (T2) having the target gene (AK065581, HIS1) introduced. In kind it is in vivo, Arabidopsis thaliana. The note with it: HIS1 recombinants T2 generation, agar medium containing 0.03 μM BBC. The protocol: For transformation of A. thaliana, ecotype “Columbia” was used, and a Floral dip method was performed (see Weigel and Glazebrook, Arabidopsis, a laboratory manual, Cold Spring Harbor Laboratory Press (2002) p131-132). Specifically, first, Agrobacterium was shake-cultured in a liquid medium (LB or YEB) containing an antibiotic. Approximately 16 hours later, 2 ml of the culture solution was added to a liquid medium (LB or YEB) containing an antibiotic, and further shake-cultured. Then, the culture solution obtained approximately 16 hours thereafter was centrifuged at 8000 rpm at 4° C. for 10 minutes. The supernatant liquid was discarded, and the resulting precipitate was suspended in 500 ml of a solution containing 5% sucrose. Subsequently, immediately before the transformation, a transformation reagent silwet (registered trademark: SILWET L-77, product number: BMS-SL7755, manufactured by Bio Medical Science Inc.) was added thereto at a final concentration of 0.025%. Then, into the Agrobacterium suspension thus obtained, Arabidopsis from which already flowered and pollinated buds had been removed was dipped for 30 to 120 seconds. Thereafter, the plants were left standing for 16 hours and then grown to obtain the seeds. […]

In test [2] the test system is rice recombinants (Kanto 239) having the homologous gene (HSL1; AK241948) introduced therein. Nature of the test: BBC resistance assay on rice recombinants having the HSL1 gene (AK241948) on agar medium. The test is classed as in vivo. The note with it: agar medium containing 0.12 μM BBC. The protocol: (§1) For transformation of rice, a BBC susceptible rice cultivar Kanto 239 was used, and the method described in “Taniguchi et al., Plant Cell Rep., 2010, vol. 29, iss. 11, pp. 1287 to 1295” was performed with some modification. Specifically, first, sterilized mature seeds were sown on an N6D medium. After culturing at 30° C. for 7 days, the seeds were infected with Agrobacterium, and co-cultured in an acetosyringone (AS)-containing N6 medium (2N6-AS medium) under a dark condition at 25° C. for 3 days. Thereafter, the infected tissues were cultured in a carbenicillin-containing N6D medium for 4 to 6 weeks (18 hours day length) in the presence of 40 mg/L hygromycin (Hyg), and Hyg-tolerant calli were re-differentiated.
Specifically, recombinants were prepared by introducing the target gene into the BBC susceptible rice cultivar “Kanto 239” that would be whitened by an agar medium containing 0.1 μM BBC, and T1 seeds or T2 seeds were obtained. These were seeded on an agar medium containing 0.12 μM BBC, and the growth state of the recombinants was examined.

Test [3] concerns BBC resistant cultivar Nipponbare. Nature of the test: BBC whitening of resistant rice cultivar on agar medium. In kind it is in vivo.
Test [4] has as its system A. thaliana (ecotype Columbia). Nature of the test: BBC whitening of wildtype A. thaliana on agar medium. In kind it is in vivo, Arabidopsis thaliana. The note with it: agar medium containing 0.03 μM BBC. The protocol:
Whether or not a protein encoded by a particular gene has an activity of providing a plant with resistance to a 4-HPPD inhibitor can be determined, for example, by introducing the gene into a plant, and assaying whether or not the plant thus produced is provided with the resistance as described in Examples later (see Example 2). Specifically, in a case of using A. thaliana (ecotype Columbia) that would be whitened by an agar medium containing 0.03 μM BBC, if a transformant produced by introducing the gene into A. thaliana can grow without being whitened in the presence of BBC at the above concentration, the protein encoded by the gene can be determined to have an activity of providing a plant with resistance to a 4-HPPD inhibitor. Moreover, in a case of using a BBC susceptible rice cultivar “Kanto 239” that would be whitened by an agar medium containing 0.1 μM BBC, if a transformant produced by introducing the gene into Kanto 239 can grow without being whitened in the presence of BBC at the above concentration, the protein encoded by the gene can be determined to have an activity of providing a plant with resistance to a 4-HPPD inhibitor.

In test [5] the test system is Tos17-inserted lines of Nipponbare. Nature of the test: Linkage analysis of BBC susceptibility in Tos17-inserted lines. The test is classed as in vivo, rice. The note with it: all progenies of six Tos17-inserted homozygous individuals. The source says: A retrotransposon Tos17 discovered in rice is activated by tissue culture, and its copies are transposed into a genome. It is known that when the transposition site is inside a gene, the gene is to be disrupted, causing a mutation (see Hirochika et al., Proc. Natl. Acad. Sci. USA, 1996, vol. 93, pp. 7783 to 7788). The present Examples utilized a rice population having accumulated mutations caused by tissue culture utilizing the phenomenon (mutant panel, database name: Tos17 mutant panel database (http://tos.nias.affrc.go.jp/ to miyao/pub/tos17/)). From the Tos17 mutant panel database, two lines were selected, in each of which Tos17 was inserted in a transcription site of a hypothetical gene of an iron/ascorbate oxidoreductase gene, which was strongly suspected of being associated with BBC susceptibility located at a gene locus specified by the QTL analysis. Then, self-fertilized seeds obtained by planting 15 individuals of each of these two lines were used to examine phenotype (BBC susceptibility) and genotype (Tos17 insertion).
Although the original cultivar “Nipponbare” of the Tos17-inserted lines is a BBC resistant cultivar, BBC susceptible individuals are derived from the lines having Tos17 inserted in the transcription site of the target gene. […]

For test [6], the system named is Momiroman, Takanari, Kasalath. Nature of the test: BBC susceptibility level of susceptible rice cultivars. The test is classed as in vivo. The settings on record: Momiroman and Takanari in comparison with Kasalath.
For test [7], the system named is BBC susceptible rice cultivar Kanto 239. Nature of the test: BBC whitening of wildtype susceptible rice on agar medium. The test is classed as in vivo. The note with it: Kanto 239 wildtype, agar medium containing 0.1 μM BBC. On the procedure:
Whether or not a protein encoded by a particular gene has an activity of providing a plant with resistance to a 4-HPPD inhibitor can be determined, for example, by introducing the gene into a plant, and assaying whether or not the plant thus produced is provided with the resistance as described in Examples later (see Example 2). Specifically, in a case of using A. thaliana (ecotype Columbia) that would be whitened by an agar medium containing 0.03 μM BBC, if a transformant produced by introducing the gene into A. thaliana can grow without being whitened in the presence of BBC at the above concentration, the protein encoded by the gene can be determined to have an activity of providing a plant with resistance to a 4-HPPD inhibitor. Moreover, in a case of using a BBC susceptible rice cultivar “Kanto 239” that would be whitened by an agar medium containing 0.1 μM BBC, if a transformant produced by introducing the gene into Kanto 239 can grow without being whitened in the presence of BBC at the above concentration, the protein encoded by the gene can be determined to have an activity of providing a plant with resistance to a 4-HPPD inhibitor. […]

Test [8] has as its system rice recombinants (Kanto 239) having the target gene (AK065581) introduced therein. Nature of the test: BBC resistance assay on rice recombinants (T0, HIS1) in composted soil. The settings on record: HIS1 recombinants T0 generation, composted soil treated with BBC at 300 ga.i./ha. In kind it is in vivo. On the procedure: as §1
Further, recombinants (TO generation) were prepared by introducing the target gene into the BBC susceptible rice cultivar “Kanto 239” that would be whitened by an agar medium containing 0.1 μM BBC, and the growth state of the recombinants was examined in composted soil treated with BBC at 300 ga.i./ha.

The test system of a further test is KHSL04. Nature of the test: BBC susceptibility of Koshihikari/Habataki chromosome segment substitution lines (QTL analysis). The settings on record: KHSL04, short arm region of chromosome 2 substituted with Habataki type. The test is classed as in vivo, rice. The protocol: A Koshihikari/Habataki chromosome segment substitution line and Tachisugata//Tachisugata/Momiroman BC1F4 were tested. Specifically, Koshihikari/Habataki chromosome segment substitution lines (KHSL) were analyzed, in which a portion of chromosome fragments of a resistant cultivar Koshihikari serving as the genetic background was substituted with a chromosome of an indica type susceptible cultivar Habataki. Note that KHSL consists of 32 lines, and enables analysis on all of the whole 12 chromosomes of Habataki (as to KHSL, see Kazumasa Murata et al., “Development and evaluation of CSSLs carrying overlapping chromosome segments of rice cultivar Habataki in a genetic background of cultivar Koshihikari, ” Breeding Research, Mar. 27, 2009, vol. 11, supplement issue 1, p. 66). In addition, 94 BC1F4 lines obtained by one-time backcrossing of a resistant cultivar Tachisugata to a susceptible cultivar Momiroman were analyzed using 80 SSR markers (as to the SSR markers used, see “Development and mapping of 2240 new SSR markers for rice (Oryza sativa L.)”, DNA Res, 2002, vol. 9, iss. 6, pp. 199 to 207, and http://www.gramene.org/).
Accordingly, the QTL analysis was performed as described above on the Koshihikari/Habataki chromosome segment substitution lines (KHSL) using the BBC resistant rice cultivar “Koshihikari” and the susceptible rice cultivar “Habataki”.

Test [9] has as its system rice recombinants (Kanto 239) having the target gene (AK065581) introduced therein. Nature of the test: Triketone type 4-HPPD inhibitor resistance assay on rice recombinants (T1/T2 seeds, HIS1) on agar medium. The test is classed as in vivo. The protocol: as §1
Rice recombinants (T1 and T2 generations) were produced and subjected to a resistance assay with triketone type 4-HPPD inhibitors, that is, mesotrione, tefuryltrione, tembotrione, and NTBC, using commercially-available reagents at concentrations to be described later.
Furthermore, recombinants were prepared by introducing the target gene into the BBC susceptible rice cultivar “Kanto 239” that would be whitened by an agar medium containing 0.1 μM BBC, and T1 seeds or T2 seeds were obtained. These were seeded on an agar medium containing 2 μM BBC, and the growth state of the recombinants was examined. […] Moreover, the seeds were seeded on an agar medium containing 1 μM mesotrione, 2.5 μM tefuryltrione, 0.5 μM tembotrione, or 1 μM NTBC, and the growth state of the recombinants was examined. FIGS. 12 to 15 show the obtained results.

The test system of test [10] is tomato cultivar Micro-Tom. Nature of the test: Germination of tomato seeds on BBC agar medium. In kind it is in vivo. The note with it: Micro-Tom seeds germinated on agar medium containing 0.3 μM BBC, 25° C., approximately 2 weeks. On the procedure: For transformation of tomatoes, a cultivar “Micro-Tom” was tested, and an Agrobacterium method was performed using vectors (35SHIS1pZK3, 35SHSL1pZK3) shown in FIGS. 5 and 7. Note that when seeds of the original cultivar Micro-Tom were germinated on an agar medium containing 0.3 μM benzobicyclon (BBC) using an incubator at 25° C., it was clearly observed approximately 2 weeks later that leaf parts thereof were whitened.

For the compound `CS(=O)(=O)c1ccc(C(=O)C2=C(Sc3ccccc3)C3CCC(C3)C2=O)c(Cl)c1` (stereo not shown) [BBC, benzobicyclon], the “growth state of the recombinants” value in test [1], in test [2], in test [8] and in test [9] (agar medium treated with 2 μM BBC) was “grew without being whitened” each time. In addition, the “whitening of the plant” value is “not whitened” in test [3] (0.12 μM BBC), “sufficient to whiten” in test [3] (agar medium 2 μM BBC), “whitened” in test [4] and “whitened” in test [7]. Besides, the “phenotype (BBC susceptibility)” value in [5] is “showed BBC susceptibility”. Besides, the “degree of BBC susceptibility” value in test [6] is “high BBC susceptibility”. Further, the BBC susceptibility result in the test on KHSL04 was “showed susceptibility”. In addition, in test [10], the “whitening of leaf parts” value is “whitened”.

With `O=C1CCCC(=O)C1C(=O)c1ccc(C(F)(F)F)cc1[N+](=O)[O-]` [NTBC, 2-(2-nitro-4-trifluoromethylbenzoyl)cyclohexane-1,3-dione], in [9] (agar medium treated with 1 μM NTBC), the “growth state of the recombinants” value is listed as “grew without being whitened”.

Consider `CS(=O)(=O)c1ccc(C(=O)C2C(=O)CCCC2=O)c([N+](=O)[O-])c1` [mesotrione], for which the “growth state of the recombinants” value in test [9] (agar medium treated with 1 μM mesotrione) is “grew without being whitened”.

As to `CS(=O)(=O)c1ccc(C(=O)C2C(=O)CCCC2=O)c(Cl)c1COCC1CCCO1` (stereo not shown) [tefuryltrione], in [9] (agar medium treated with 2.5 μM tefuryltrione), the “growth state of the recombinants” value is “grew without being whitened”.

Consider `CS(=O)(=O)c1ccc(C(=O)C2C(=O)CCCC2=O)c(Cl)c1COCC(F)(F)F` [tembotrione], for which, in [9] (agar medium treated with 0.5 μM tembotrione), the “growth state of the recombinants” value is “grew without being whitened”.
